Results published in patent US8722671B2, “Isoquinoline derivatives” (Sanofi, priority 2005, dated 2014).

Molecular target: T1, ROCKII or ROKα (Homo sapiens, UniProt O75116)
T1 construct: purchased Upstate 14-451
Experiment: Determination of Rho kinase inhibition (33P-ATP Streptavidin Flash Plate assay)
Assay type: biochemical
Conditions: ATP 40 μM, activity denoted as pIC50 class
Protocol: Determination of Rho Kinase Inhibition
To measure Rho-kinase inhibition, IC50 values were determined according to the following protocol:
Buffer: 25 mM Tris pH7.5; 0.02% BSA; 5% Glycerol; 0.008% Triton X100; 2% DMSO, 1 mM DTT; 1 mM MgCl2; 0.5 μCi/well γ^33P ATP
Enzyme: ROCKII or ROKα) (Upstate, Catalog #14-451 Lot #24880U) 0.1 ng/μl
Final concentration of ATP in reaction mixture 40 μM
Biotinylated substrate, diluted to 0.25 μM with buffer described above (without ATP)
• 1. 10 μl Tris buffer (±Inhibitor) • 2. Add 30 μl of enzyme solution • 3. Start the reaction with 30 μL of mix substrate/ATP/ATP33 • 4. Incubate for 20 min at room temperature • 5. Stop reaction with 30 μL of 50 mM EDTA • 6. Transfer 50 μL of stopped solution to Streptavidin Flash Plate plus, Perkin Elmer, SMP 103A • 7. Incubate for 30 min at RT • 8. Wash 4 times with 300 μl of PBS/0.1% Tween 20 • 9. Radioactivity in the well was determined

T1 sequence (O75116 11-552 limits assumed): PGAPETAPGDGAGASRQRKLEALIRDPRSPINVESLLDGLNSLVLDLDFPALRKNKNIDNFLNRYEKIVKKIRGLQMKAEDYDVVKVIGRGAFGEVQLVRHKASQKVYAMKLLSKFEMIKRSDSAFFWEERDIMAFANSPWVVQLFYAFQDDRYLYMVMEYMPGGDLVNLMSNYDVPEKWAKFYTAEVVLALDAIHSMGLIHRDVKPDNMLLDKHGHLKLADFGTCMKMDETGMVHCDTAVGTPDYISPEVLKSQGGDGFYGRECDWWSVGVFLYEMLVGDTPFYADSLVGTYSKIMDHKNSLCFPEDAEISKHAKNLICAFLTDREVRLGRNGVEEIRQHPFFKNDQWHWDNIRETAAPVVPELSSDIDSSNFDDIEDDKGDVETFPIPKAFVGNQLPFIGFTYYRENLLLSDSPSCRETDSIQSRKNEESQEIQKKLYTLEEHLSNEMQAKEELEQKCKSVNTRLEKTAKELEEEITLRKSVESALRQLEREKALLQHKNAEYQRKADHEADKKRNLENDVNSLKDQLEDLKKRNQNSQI

With CCc1cncc2ccc(OC3CCNCC3)cc12.Cl [Compound 266, 4-Ethyl-6-(piperidin-4-yloxy)-isoquinoline] the IC50 was “+++ (5.0≦pIC50<6.0)”.
With Cc1cc(OC2CCNCC2)c(C)c2ccncc12.Cl [Compound 133] the IC50 was “++++ (6.0≦pIC50)”.
In the case of OCc1cccc(-c2c(OC3CCNCC3)ccc3cnccc23)c1 [Compound 67], the IC50 is reported as “+++ (5.0≦pIC50<6.0)”.
COc1ccc(-c2c(OC3CCNCC3)ccc3cnccc23)cc1N [Compound 72] was tested, and the IC50 was “++++ (6.0≦pIC50)”.
With Cl.Clc1cncc2ccc(OC3CCNCC3)cc12 [Compound 156, 4-Chloro-6-(piperidin-4-yloxy)-isoquinoline hydrochloride] the IC50 was “++++ (6.0≦pIC50)”.
For Clc1cc2cnccc2c(Cl)c1OC1CCNCC1 [Compound 378, 5,7-Dichloro-6-(piperidin-4-yloxy)-isoquinoline], the IC50 was “++++ (6.0≦pIC50)”.
In the case of O=C(O)C(F)(F)F.c1ccc2oc(-c3c(OC4CCNCC4)ccc4cnccc34)cc2c1 [Compound 59], the IC50 is reported as “++++ (6.0≦pIC50)”.
In the case of Cc1c(OC2CCNCC2)cc2ccncc2c1C.Cl [Compound 134], the IC50 is reported as “+++ (5.0≦pIC50<6.0)”.
In the case of c1ccc(Cc2c(OC3CCNCC3)ccc3cnccc23)cc1 [Compound 29, 5-Benzyl-6-(piperidin-4-yloxy)-isoquinoline], the IC50 is reported as “+++ (5.0≦pIC50<6.0)”.
O=C(O)C(F)(F)F.c1ccc(C(CN2CCC(Oc3ccc4cnccc4c3)CC2)c2ccccc2)cc1 [Compound 100] was tested, and the IC50 was “+++ (5.0≦pIC50<6.0)”.
For COc1cccc(Nc2cc3c(C4CC4)c(OC4CCNCC4)ccc3cn2)c1.Cl [Compound 265], the IC50 was “+++ (5.0≦pIC50<6.0)”.
With Brc1c(OC2CCNCC2)ccc2cnccc12.Cl [Compound 41] the IC50 was “++++ (6.0≦pIC50)”.
CN1CCCC(COc2ccc3cnccc3c2Br)C1.O=C(O)C(F)(F)F (stereo not drawn) [Compound 138] was tested, and the IC50 was “++++ (6.0≦pIC50)”.
Cl.Clc1cc(OC2CCNCC2)cc2ccncc12 [Compound 269, 8-Chloro-6-(Piperidin-4-yloxy)-isoquinoline hydrochloride] was tested, and the IC50 was “++++ (6.0≦pIC50)”.
In the case of Cl.c1cc2c(cc1Nc1cc3cc(OC4CCNCC4)ccc3cn1)OCO2 [Compound 261], the IC50 is reported as “++++ (6.0≦pIC50)”.
For O=C(O)C(F)(F)F.c1cc2cc(OC3CCCNC3)ccc2cn1 (stereo not drawn) [Compound 145], the IC50 was “+++ (5.0≦pIC50<6.0)”.
c1ccc(-c2cc3cnccc3cc2OC2CCNCC2)cc1 [Compound 81] was tested, and the IC50 was “++++ (6.0≦pIC50)”.
In the case of COc1cc(Nc2cc3cc(OC4CCNCC4)ccc3cn2)cc(OC)c1OC [Compound 228], the IC50 is reported as “++++ (6.0≦pIC50)”.
In the case of Cl.Ic1c(OC2CCNCC2)ccc2cnccc12 [Compound 44], the IC50 is reported as “++++ (6.0≦pIC50)”.
COc1ccc2cc(CN3CCC(Oc4ccc5cnccc5c4)CC3)ccc2c1.O=C(O)C(F)(F)F [Compound 120] was tested, and the IC50 was “++++ (6.0≦pIC50)”.
FC(F)(F)CCN1CCC(Oc2ccc3cnccc3c2)CC1.O=C(O)C(F)(F)F [Compound 111] was tested, and the IC50 was “+++ (5.0≦pIC50<6.0)”.
